Test results: ChEMBL document CHEMBL1127127, “Avermectin B1-8,9-oxide: reactivity, bioactivity, and stereochemistry” (1993)

Test system: Artemia
Assay: Tested for bioactivity against Brine Shrimp
Type: functional

Compound | IC100 [ng/mL]
CC[C@H](C)[C@H]1O[C@]2(CC[C@@H]1C)C[C@@H]1C[C@@H](C/C=C(\C)[C@@H](O[C@@H]3C[C@@H](OC)[C@H](O[C@@H]4C[C@@H](OC)[C@H](O)[C@@H](C)O4)[C@@H](C)O3)[C@@H](C)/C=C/C=C3\COC4[C@H](O)C(C)=C[C@@H](C(=O)O1)[C@]34O)O2 (stereo not given in full) | 430
CC[C@H](C)[C@H]1O[C@]2(C=C[C@@H]1C)C[C@@H]1C[C@@H](C/C=C(\C)[C@@H](O[C@@H]3C[C@@H](OC)[C@H](O[C@@H]4C[C@@H](OC)[C@H](O)[C@@H](C)O4)[C@@H](C)O3)[C@@H](C)/C=C/C(O)[C@]3(O)COC4[C@H](O)C(C)=C[C@@H](C(=O)O1)[C@@]43O)O2 (stereo not given in full) | >55000
CC[C@H](C)[C@H]1O[C@]2(C=C[C@@H]1C)C[C@@H]1C[C@@H](C/C=C(\C)[C@@H](O[C@@H]3C[C@@H](OC)[C@H](O[C@@H]4C[C@@H](OC)[C@H](O)[C@@H](C)O4)[C@@H](C)O3)[C@@H](C)/C=C/[C@@H]3O[C@]34COC3[C@H](O)C(C)=C[C@@H](C(=O)O1)[C@@]34O)O2 (stereo not given in full) | 650
CC[C@H](C)[C@H]1O[C@]2(C=C[C@@H]1C)C[C@@H]1C[C@@H](C/C=C(\C)[C@@H](O[C@@H]3C[C@@H](OC)[C@H](O[C@@H]4C[C@@H](OC)[C@H](O)[C@@H](C)O4)[C@@H](C)O3)[C@@H](C)/C=C/C=C3\COC4[C@H](O)C(C)=C[C@@H](C(=O)O1)[C@]34O)O2 (stereo not given in full) | 335
CC[C@H](C)[C@H]1O[C@]2(C=C[C@@H]1C)C[C@@H]1C[C@@H](C/C=C(\C)[C@@H](O[C@@H]3C[C@@H](OC)[C@H](O[C@@H]4C[C@@H](OC)[C@H](O)[C@@H](C)O4)[C@@H](C)O3)[C@@H](C)/C=C/C(Sc3ccccc3)[C@]3(O)COC4[C@H](O)C(C)=C[C@@H](C(=O)O1)[C@@]43O)O2 (stereo not given in full) | >55000
